Reference: ChEMBL document CHEMBL4706763, “Targeting IRAK1 for Degradation with PROTACs” (ACS Med Chem Lett, 2021)

Assays:
[1] = target: T1, von Hippel-Lindau disease tumor suppressor/Interleukin-1 receptor-associated kinase 1 (Homo sapiens, UniProt P51617+P40337); test: Protac activity at VHL/IRAK1 in HEK293T cells assessed as induction of IRAK1 degradation at 10 uM measured after 24 hrs by Western blot analysis relative to control; assay type: cell-based
Target sequence in this assay (P40337 whole entry, looked up): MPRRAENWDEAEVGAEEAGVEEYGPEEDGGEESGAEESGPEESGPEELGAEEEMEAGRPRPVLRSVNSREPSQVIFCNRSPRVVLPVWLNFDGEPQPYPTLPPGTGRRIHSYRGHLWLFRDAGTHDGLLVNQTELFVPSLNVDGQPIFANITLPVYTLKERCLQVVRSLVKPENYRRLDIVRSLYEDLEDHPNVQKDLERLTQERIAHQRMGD
Target sequence in this assay (P51617 whole entry, looked up): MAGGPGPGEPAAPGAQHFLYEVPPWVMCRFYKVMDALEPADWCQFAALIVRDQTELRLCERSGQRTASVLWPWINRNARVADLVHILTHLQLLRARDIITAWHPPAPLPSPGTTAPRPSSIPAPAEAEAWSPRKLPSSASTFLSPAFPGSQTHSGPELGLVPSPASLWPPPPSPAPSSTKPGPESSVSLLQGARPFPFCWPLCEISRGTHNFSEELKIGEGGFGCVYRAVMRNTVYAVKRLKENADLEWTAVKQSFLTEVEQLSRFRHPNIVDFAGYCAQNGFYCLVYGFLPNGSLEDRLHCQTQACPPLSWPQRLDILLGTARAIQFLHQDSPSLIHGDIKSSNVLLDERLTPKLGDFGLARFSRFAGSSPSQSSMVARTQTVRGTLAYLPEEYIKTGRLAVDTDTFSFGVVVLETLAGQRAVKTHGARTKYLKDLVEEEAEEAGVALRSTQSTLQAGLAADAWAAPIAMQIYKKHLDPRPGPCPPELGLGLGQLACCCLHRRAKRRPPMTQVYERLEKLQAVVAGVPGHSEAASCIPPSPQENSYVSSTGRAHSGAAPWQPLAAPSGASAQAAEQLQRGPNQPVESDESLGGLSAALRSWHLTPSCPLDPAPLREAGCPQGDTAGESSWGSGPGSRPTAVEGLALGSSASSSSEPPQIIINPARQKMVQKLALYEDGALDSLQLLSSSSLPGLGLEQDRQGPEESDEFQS

[2] = target: T1, von Hippel-Lindau disease tumor suppressor/Interleukin-1 receptor-associated kinase 1; test: Protac activity at VHL/IRAK1 in HEK293T cells assessed as induction of IRAK1 degradation measured after 24 hrs by Western blot analysis; assay type: cell-based
Target sequence in this assay (P51617 whole entry): as the sequence (P51617 whole entry, looked up) above
Target sequence in this assay (P40337 whole entry): as the sequence (P40337 whole entry, looked up) above

Row | SMILES | Emax [1] [%] | DC50 [2] [nM]
1 | COc1cc(N2CCC(OCC(=O)N[C@H](C(=O)N3C[C@H](O)C[C@H]3C(=O)N[C@@H](C)c3ccc(-c4scnc4C)cc3)C(C)(C)C)CC2)ccc1NC(=O)c1cccc(-c2ccn[nH]2)n1 | 96 | 3
2 | COc1cc(N2CCN(C(=O)OCC(=O)N[C@H](C(=O)N3C[C@H](O)C[C@H]3C(=O)NCc3ccc(-c4scnc4C)cc3)C(C)(C)C)CC2)ccc1NC(=O)c1cccc(-c2ccn[nH]2)n1 | 97 | 16
3 | COc1cc(N2CCN(C(=O)OCC(=O)N[C@H](C(=O)N3C[C@H](O)C[C@H]3C(=O)N[C@@H](C)c3ccc(-c4scnc4C)cc3)C(C)(C)C)CC2)ccc1NC(=O)c1cccc(-c2ccn[nH]2)n1 | 90 | 9
4 | COc1cc(N2CCC(OCC(=O)N[C@H](C(=O)N3C[C@H](O)C[C@H]3C(=O)NCc3ccc(-c4scnc4C)cc3)C(C)(C)C)CC2)ccc1NC(=O)c1cccc(-c2ccn[nH]2)n1 | 95 | 16
5 | COc1cc(N2CC[C@@H](OCC(=O)N[C@H](C(=O)N3C[C@H](O)C[C@H]3C(=O)N[C@@H](C)c3ccc(-c4scnc4C)cc3)C(C)(C)C)C[C@@H]2C)ccc1NC(=O)c1cccc(-c2ccn[nH]2)n1 | 94 | 13
6 | COc1cc(N2CC[C@H](OCC(=O)N[C@H](C(=O)N3C[C@H](O)C[C@H]3C(=O)N[C@@H](C)c3ccc(-c4scnc4C)cc3)C(C)(C)C)[C@@H](C)C2)ccc1NC(=O)c1cccc(-c2ccn[nH]2)n1 | 95 | –
7 | COc1cc(N2CC[C@@H](OCC(=O)N[C@H](C(=O)N3C[C@H](O)C[C@H]3C(=O)N[C@@H](C)c3ccc(-c4scnc4C)cc3)C(C)(C)C)[C@H](C)C2)ccc1NC(=O)c1cccc(-c2ccn[nH]2)n1 | 96 | 21
8 | COc1cc(N2CCC(OCC(=O)N[C@H](C(=O)N3C[C@H](O)C[C@H]3C(=O)NCc3ccc(-c4scnc4C)cc3F)C(C)(C)C)CC2)ccc1NC(=O)c1cccc(-c2ccn[nH]2)n1 | 96 | 13
